What was measured:
[1] = tested on: murine B16 melanoma cells; test: B16 murine melanoma cell proliferation (Promega Cell Titer 96 AQueous assay); type: cell-based; conditions: 48 hours incubation, 0-90 micrograms/ml, FIG. 1
Method: 5000 cells/well of murine B16 melanoma cells were plated in a 96-well plate and incubated for 48 hours with varying concentrations of cyclodextrin tetradecasulfate (0-90 micrograms/ml). Non-radioactive assay solution was prepared according to manufacturer's protocol (Promega Cell Titer 96 AQueous Assay Reagents). Cells were read using a Biorad benchmark microplate reader 2 hours after the assay solution was added to the well.

lung metastasis = test: Lung metastasis in tumorigenic mice treated via drinking water; type: in vivo; conditions: C57B1-6 mice, 10 mg/ml in drinking water for two weeks, FIG. 2
Method: C57B1-6 mice (n=2) were treated with 10 mg/ml β-cyclodextrin tetradecasulfate in their drinking water for two weeks. The control animal (n=2) was given cyclodextrin-free drinking water.

β-cyclodextrin tetradecasulfate
cell proliferation [1]: cell proliferation decreases
lung metastasis compared to the control animal (lung metastasis): ⅓ fewer lung metastasis

Reference: patent publication US20030236223A1, “Metastasis modulating activity of highly sulfated oligosaccharides” (Greenville Hospital System, priority 2002, published 2003)
